Source: ChEMBL document CHEMBL3621049, “Imidazole derivatives show anticancer potential by inducing apoptosis and cellular senescence” (2014)
The source made the active and inactive calls.

Key:
Format in all cases: functional, cell-based
NCI-H460 = experiment: Growth inhibition of human NCI-H460 cells at 10 uM by sulforhodamine B assay
HCT-15 = experiment: Growth inhibition of human HCT15 cells at 10 uM by sulforhodamine B assay
NCI-H522 = experiment: Growth inhibition of human NCI-H522 cells at 10 uM by sulforhodamine B assay
SK-MEL-28 = experiment: Growth inhibition of human SK-MEL-28 cells at 10 uM by sulforhodamine B assay
PC-3 = experiment: Growth inhibition of human PC3 cells at 10 uM by sulforhodamine B assay
NCI-H322M = experiment: Growth inhibition of human NCI-H322M cells at 10 uM by sulforhodamine B assay
SW-620 = experiment: Growth inhibition of human SW620 cells at 10 uM by sulforhodamine B assay
U-251 = experiment: Growth inhibition of human U251 cells at 10 uM by sulforhodamine B assay
SK-OV-3 = experiment: Growth inhibition of human SKOV3 cells at 10 uM by sulforhodamine B assay
HL-60(TB) = experiment: Growth inhibition of human HL-60(TB) cells at 10 uM by sulforhodamine B assay
RPMI-8226 = experiment: Growth inhibition of human RPMI8226 cells at 10 uM by sulforhodamine B assay
SF-539 = experiment: Growth inhibition of human SF539 cells at 10 uM by sulforhodamine B assay
KM12 = experiment: Growth inhibition of human KM12 cells at 10 uM by sulforhodamine B assay
NCI/ADR-RES = experiment: Growth inhibition of human NCI/ADR-RES cells at 10 uM by sulforhodamine B assay
MCF7 = experiment: Growth inhibition of human MCF7 cells at 10 uM by sulforhodamine B assay
HT-29 = experiment: Growth inhibition of human HT-29 cells at 10 uM by sulforhodamine B assay
OVCAR-5 = experiment: Growth inhibition of human OVCAR5 cells at 10 uM by sulforhodamine B assay
HCC 2998 = experiment: Growth inhibition of human HCC2998 cells at 10 uM by sulforhodamine B assay
A549 = experiment: Growth inhibition of human A549/ATCC cells at 10 uM by sulforhodamine B assay
MDA-MB-435 = experiment: Growth inhibition of human MDA-MB-435 cells at 10 uM by sulforhodamine B assay
UACC-62 = experiment: Growth inhibition of human UACC62 cells at 10 uM by sulforhodamine B assay
ACHN = experiment: Growth inhibition of human ACHN cells at 10 uM by sulforhodamine B assay
OVCAR-4 = experiment: Growth inhibition of human OVCAR4 cells at 10 uM by sulforhodamine B assay
OVCAR-3 = experiment: Growth inhibition of human OVCAR3 cells at 10 uM by sulforhodamine B assay
NCI-H23 = experiment: Growth inhibition of human NCI-H23 cells at 10 uM by sulforhodamine B assay
HCT-116 = experiment: Growth inhibition of human HCT116 cells at 10 uM by sulforhodamine B assay
SN12C = experiment: Growth inhibition of human SN12C cells at 10 uM by sulforhodamine B assay
Hs-578T = experiment: Growth inhibition of human Hs 578T cells at 10 uM by sulforhodamine B assay
Malme-3M = experiment: Growth inhibition of human MALME-3M cells at 10 uM by sulforhodamine B assay
RXF 393 = experiment: Growth inhibition of human RXF393 cells at 10 uM by sulforhodamine B assay
A498 = experiment: Growth inhibition of human A498 cells at 10 uM by sulforhodamine B assay
UACC-257 = experiment: Growth inhibition of human UACC257 cells at 10 uM by sulforhodamine B assay
CCRF-CEM = experiment: Growth inhibition of human CCRF-CEM cells at 10 uM by sulforhodamine B assay
SNB-19 = experiment: Growth inhibition of human SNB19 cells at 10 uM by sulforhodamine B assay
CAKI-1 = experiment: Growth inhibition of human Caki1 cells at 10 uM by sulforhodamine B assay
SR = experiment: Growth inhibition of human SR cells at 10 uM by sulforhodamine B assay
SK-MEL-5 = experiment: Growth inhibition of human SK-MEL-5 cells at 10 uM by sulforhodamine B assay
TK-10 = experiment: Growth inhibition of human TK10 cells at 10 uM by sulforhodamine B assay
COLO 205 = experiment: Growth inhibition of human COLO205 cells at 10 uM by sulforhodamine B assay
LOX IMVI = experiment: Growth inhibition of human LOXIMVI cells at 10 uM by sulforhodamine B assay
K562 = experiment: Growth inhibition of human K562 cells at 10 uM by sulforhodamine B assay
NCI-H226 = experiment: Growth inhibition of human NCI-H226 cells at 10 uM by sulforhodamine B assay
M14 = experiment: Growth inhibition of human M14 cells at 10 uM by sulforhodamine B assay
MDA-MB-468 = experiment: Growth inhibition of human MDA-MB-468 cells at 10 uM by sulforhodamine B assay
OVCAR-8 = experiment: Growth inhibition of human OVCAR8 cells at 10 uM by sulforhodamine B assay
HOP-62 = experiment: Growth inhibition of human HOP62 cells at 10 uM by sulforhodamine B assay
DU-145 = experiment: Growth inhibition of human DU145 cells at 10 uM by sulforhodamine B assay
SF-268 = experiment: Growth inhibition of human SF268 cells at 10 uM by sulforhodamine B assay
SF-295 = experiment: Growth inhibition of human SF295 cells at 10 uM by sulforhodamine B assay
SK-MEL-2 = experiment: Growth inhibition of human SK-MEL-2 cells at 10 uM by sulforhodamine B assay
HOP-92 = experiment: Growth inhibition of human HOP92 cells at 10 uM by sulforhodamine B assay
MDA-MB-231 = experiment: Growth inhibition of human MDA-MB-231 cells at 10 uM by sulforhodamine B assay
T47D = experiment: Growth inhibition of human T47D cells at 10 uM by sulforhodamine B assay
UO-31 = experiment: Growth inhibition of human UO31 cells at 10 uM by sulforhodamine B assay
MOLT-4 = experiment: Growth inhibition of human MOLT4 cells at 10 uM by sulforhodamine B assay
SNB-75 = experiment: Growth inhibition of human SNB75 cells at 10 uM by sulforhodamine B assay
IGROV-1 = experiment: Growth inhibition of human IGROV1 cells at 10 uM by sulforhodamine B assay
BT-549 = experiment: Growth inhibition of human BT549 cells at 10 uM by sulforhodamine B assay
786-0 = experiment: Growth inhibition of human 786-0 cells at 10 uM by sulforhodamine B assay

Measured: growth inhibition (GI)

CCCCCCn1c(-c2ccc(OC)c(OC3CCCC3)c2)nc(-c2ccccc2)c1-c1ccccc1
active: NCI-H460 | HCT-15 | NCI-H522 | SK-MEL-28 | PC-3 | NCI-H322M | SW-620 | U-251 | SK-OV-3 | HL-60(TB) | RPMI-8226 | SF-539 | KM12 | NCI/ADR-RES | MCF7 | HT-29 | OVCAR-5 | HCC 2998 | A549 | MDA-MB-435 | UACC-62 | ACHN | OVCAR-4 | OVCAR-3 | NCI-H23 | HCT-116 | SN12C | Hs-578T | Malme-3M | RXF 393 | A498 | UACC-257 | CCRF-CEM | SNB-19 | CAKI-1 | SR | SK-MEL-5 | TK-10 | COLO 205 | LOX IMVI | K562 | NCI-H226 | M14 | MDA-MB-468 | OVCAR-8 | HOP-62 | DU-145 | SF-268 | SF-295 | SK-MEL-2 | HOP-92 | MDA-MB-231 | T47D | UO-31 | MOLT-4 | SNB-75 | IGROV-1 | BT-549 | 786-0

COc1ccc(-c2nc(-c3ccccc3)c(-c3ccccc3)n2C2CC2)cc1OC1CCCC1
active: NCI-H460 | HCT-15 | NCI-H522 | SK-MEL-28 | PC-3 | NCI-H322M | SW-620 | U-251 | SK-OV-3 | HL-60(TB) | RPMI-8226 | SF-539 | KM12 | NCI/ADR-RES | MCF7 | HT-29 | OVCAR-5 | HCC 2998 | A549 | MDA-MB-435 | UACC-62 | ACHN | OVCAR-4 | OVCAR-3 | NCI-H23 | HCT-116 | SN12C | Hs-578T | Malme-3M | RXF 393 | A498 | UACC-257 | CCRF-CEM | SNB-19 | CAKI-1 | SR | SK-MEL-5 | TK-10 | COLO 205 | LOX IMVI | K562 | NCI-H226 | M14 | MDA-MB-468 | OVCAR-8 | HOP-62 | DU-145 | SF-268 | SF-295 | SK-MEL-2 | HOP-92 | MDA-MB-231 | T47D | UO-31 | MOLT-4 | SNB-75 | IGROV-1 | BT-549 | 786-0
